Measured values reported in PubChem BioAssay (NCI).
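48-hour exposure; five concentrations; linearly interpolated endpoints. Abbreviation: GI50, concentration required for 50% inhibition of growth. TGI denotes the concentration required for complete inhibition of growth.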

How the values were obtained:
Test in all cases: growth of human tumour cells (NCI), 48 h
[1] = test system: MCF7 breast
[2] = test system: MALME-3M melanoma
[3] = test system: SNB-19 CNS
[4] = test system: MDA-MB-231 breast
[5] = test system: HCT-15 colon
[6] = test system: UACC-62 melanoma
[7] = test system: SK-MEL-2 melanoma
[8] = test system: K-562 leukemia
[9] = test system: RPMI-8226 leukemia
[10] = test system: HCC-2998 colon
[11] = test system: SK-MEL-5 melanoma
[12] = test system: M14 melanoma
[13] = test system: MDA-MB-435
[14] = test system: OVCAR-8 ovarian
[15] = test system: SK-OV-3 ovarian
[16] = test system: BT-549 breast
[17] = test system: CCRF-CEM leukemia
[18] = test system: CAKI-1 renal
[19] = test system: HL-60(TB) leukemia
[20] = test system: 786-0 renal
[21] = test system: DU-145 prostate
[22] = test system: OVCAR-4 ovarian
[23] = test system: SF-295 CNS
[24] = test system: TK-10 renal
[25] = test system: NCI-H460 lung
[26] = test system: LOX IMVI melanoma
[27] = test system: HT29 colon
[28] = test system: SF-268 CNS
[29] = test system: PC-3 prostate
[30] = test system: IGROV1 ovarian
[31] = test system: HCT-116 colon
[32] = test system: SNB-75 CNS
[33] = test system: OVCAR-3 ovarian
[34] = test system: SF-539 CNS
[35] = test system: MOLT-4 leukemia
[36] = test system: HOP-62 NSCLC
[37] = test system: U251 CNS
[38] = test system: A549 NSCLC
[39] = test system: SW-620 colon
[40] = test system: HOP-92 NSCLC
[41] = test system: UACC-257 melanoma
[42] = test system: SN12C renal
[43] = test system: NCI-H522 lung
[44] = test system: NCI/ADR-RES ovarian
[45] = test system: KM12 colon
[46] = test system: HS 578T breast
[47] = test system: EKVX NSCLC
[48] = test system: NCI-H23 lung
[49] = test system: ACHN renal
[50] = test system: SR leukemia
[51] = test system: OVCAR-5 ovarian
[52] = test system: A498 renal
[53] = test system: NCI-H226 lung
[54] = test system: COLO 205 colon
[55] = test system: RXF 393 renal
[56] = test system: T-47D breast
[57] = test system: UO-31 renal
[58] = test system: SK-MEL-28 melanoma

## O=C(COc1cc(O)c2c(=O)cc(-c3ccccc3)oc2c1)Nc1ccccc1C(F)(F)F
[1]
  GI50: 7.4 µM
  TGI: > 100 µM
[2]
  GI50: 3.17 µM
  TGI: > 100 µM
[3]
  GI50: 4.17 µM
  TGI: 21.7 µM
[4]
  GI50: 2.04 µM
  TGI: 5.26 µM
[5]
  GI50: 3.28 µM
  TGI: 21.1 µM
[6]
  GI50: 6.58 µM
  TGI: > 100 µM
[7]
  GI50: 15.1 µM
  TGI: 38 µM
[8]
  GI50: 5.03 µM
  TGI: > 100 µM
[9]
  GI50: 7.03 µM
  TGI: > 100 µM
[10]
  GI50: > 100 µM
  TGI: > 100 µM
[11]
  GI50: 4.1 µM
  TGI: 25.4 µM
[12]
  GI50: 27.6 µM
  TGI: > 100 µM
[13]
  GI50: 6.03 µM
  TGI: > 100 µM
[14]
  GI50: 3.67 µM
  TGI: 32.1 µM
[15]
  GI50: 14.9 µM
  TGI: 50.7 µM
[16]
  GI50: 5.19 µM
  TGI: 38.9 µM
[17]
  GI50: 19.6 µM
  TGI: 64.1 µM
[18]
  GI50: 3.74 µM
  TGI: 18.7 µM
[19]
  GI50: > 100 µM
  TGI: > 100 µM
[20]
  GI50: 2.01 µM
  TGI: 4.15 µM
[21]
  GI50: 7.97 µM
  TGI: > 100 µM
[22]
  GI50: 2.45 µM
  TGI: 5.94 µM
[23]
  GI50: 2.94 µM
  TGI: 9.13 µM
[24]
  GI50: 1.88 µM
  TGI: 3.71 µM
[25]
  GI50: 2.59 µM
  TGI: 6.68 µM
[26]
  GI50: 4.74 µM
  TGI: 22.6 µM
[27]
  GI50: 6.48 µM
  TGI: > 100 µM
[28]
  GI50: 4.94 µM
  TGI: 26.1 µM
[29]
  GI50: 5.75 µM
  TGI: > 100 µM
[30]
  GI50: 3.61 µM
  TGI: 15.9 µM
[31]
  GI50: 1.83 µM
  TGI: 4.06 µM
[32]
  GI50: 1.65 µM
  TGI: 4.41 µM
[33]
  GI50: 2.12 µM
  TGI: 4.12 µM
[34]
  GI50: 2.21 µM
  TGI: 5.5 µM
[35]
  GI50: 5.46 µM
  TGI: > 100 µM
[36]
  GI50: 2.62 µM
  TGI: 8.19 µM
[37]
  GI50: 2.01 µM
  TGI: 4.45 µM
[38]
  GI50: 1.71 µM
  TGI: 3.75 µM
[39]
  GI50: 3.56 µM
  TGI: > 100 µM
[40]
  GI50: 2.13 µM
  TGI: 6.71 µM
[41]
  GI50: > 100 µM
  TGI: > 100 µM
[42]
  GI50: 4.02 µM
  TGI: > 100 µM
[43]
  GI50: 6.77 µM
  TGI: > 100 µM
[44]
  GI50: 3.45 µM
  TGI: 22.5 µM
[45]
  GI50: 8.17 µM
  TGI: > 100 µM
[46]
  GI50: 2.6 µM
  TGI: 7.79 µM
[47]
  GI50: 9.37 µM
  TGI: 62.4 µM
[48]
  GI50: 3.07 µM
  TGI: 11.6 µM
[49]
  GI50: 2.91 µM
  TGI: 9.63 µM
[50]
  GI50: 4.44 µM
  TGI: > 100 µM
[51]
  GI50: 7.18 µM
  TGI: > 100 µM
[52]
  GI50: 4.04 µM
  TGI: 17.8 µM
[53]
  GI50: 2.28 µM
  TGI: 6.48 µM
[54]
  GI50: 8.04 µM
  TGI: > 100 µM
[55]
  GI50: 2.21 µM
  TGI: 6.34 µM

## CC(C)(C)c1cc(-n2c(-c3ccc(Cl)cc3)nc3cc(C(=O)Nc4ccc(Cl)cc4)ccc32)n[nH]1
[1]
  GI50: 3.93 µM
  TGI: > 100 µM
[2]
  GI50: 5.29 µM
  TGI: > 100 µM
[3]
  GI50: 4.1 µM
  TGI: > 100 µM
[4]
  GI50: 23.7 µM
  TGI: > 100 µM
[6]
  GI50: 2.75 µM
  TGI: > 100 µM
[7]
  GI50: 2.89 µM
  TGI: 9.58 µM
[14]
  GI50: 9.03 µM
  TGI: > 100 µM
[15]
  GI50: 21.6 µM
  TGI: 66.4 µM
[56]
  GI50: 3.72 µM
  TGI: > 100 µM
[16]
  GI50: 5.75 µM
  TGI: > 100 µM
[19]
  GI50: 3.18 µM
  TGI: > 100 µM
[20]
  GI50: 6.18 µM
  TGI: > 100 µM
[21]
  GI50: 8.5 µM
  TGI: > 100 µM
[22]
  GI50: 6.11 µM
  TGI: > 100 µM
[23]
  GI50: 2.93 µM
  TGI: > 100 µM
[24]
  GI50: 3.66 µM
  TGI: > 100 µM
[25]
  GI50: 3.57 µM
  TGI: > 100 µM
[27]
  GI50: > 100 µM
  TGI: > 100 µM
[28]
  GI50: 9.03 µM
  TGI: > 100 µM
[29]
  GI50: 3.29 µM
  TGI: > 100 µM
[30]
  GI50: 5.65 µM
  TGI: > 100 µM
[31]
  GI50: 3.84 µM
  TGI: > 100 µM
[32]
  GI50: 7.08 µM
  TGI: 26.4 µM
[33]
  GI50: 3.63 µM
  TGI: 23.2 µM
[34]
  GI50: 28 µM
  TGI: > 100 µM
[36]
  GI50: 14.1 µM
  TGI: 36.9 µM
[37]
  GI50: 6.63 µM
  TGI: > 100 µM
[38]
  GI50: 3.71 µM
  TGI: > 100 µM
[40]
  GI50: 1.65 µM
  TGI: 6.51 µM
[41]
  GI50: 7.92 µM
  TGI: > 100 µM
[42]
  GI50: 5.82 µM
  TGI: > 100 µM
[57]
  GI50: 2.69 µM
  TGI: > 100 µM
[43]
  GI50: 3.9 µM
  TGI: 94.8 µM
[44]
  GI50: 4.17 µM
  TGI: > 100 µM
[58]
  GI50: 64.2 µM
  TGI: > 100 µM
[45]
  GI50: 2.76 µM
  TGI: > 100 µM
[46]
  GI50: 7.91 µM
  TGI: 93 µM
[48]
  GI50: 4.86 µM
  TGI: > 100 µM
[49]
  GI50: 5.18 µM
  TGI: > 100 µM
[50]
  GI50: > 100 µM
  TGI: > 100 µM
[51]
  GI50: > 100 µM
  TGI: > 100 µM
[52]
  GI50: 1.99 µM
  TGI: > 100 µM
[53]
  GI50: 10.4 µM
  TGI: > 100 µM
[54]
  GI50: 4.71 µM
  TGI: > 100 µM
[55]
  GI50: 8.57 µM
  TGI: 63.6 µM
